This is an account of results in patent US20050090454A1, “Combination of dehydroepiandrosterone or dehydroepiandrosterone-sulfate with an antihistamine for treatment of asthma or chronic obstructive pulmonary disease” (priority 2003, published 2005).

The EC50 is the midpoint of the concentration-response curve.

The subject of data set [1] is Intracellular adenosine in rat heart, liver, lung and brain. The data set is described as follows: In vivo effect on adenosine levels in rat tissues. The text has this: Hearts were removed from animals and flash frozen in liquid nitrogen with 10 s of death. Liver and lungs were removed en bloc and flash frozen with 30 s of death. Brain tissue was subsequently dissected.

The subject of data set [2] is HT-29 SF cells. The data set is described as follows: Reversal of DHEA effect on cell cycle. The following applies: supplement with 25 μM DHEA. The class given is cell-based, human.
Data set [3] relates to HT-29 SF cells. Kind of data set: DHEA effect on cell cycle distribution (flow cytometry). The data set is classed as cell-based, human. The settings on record: 25, 50 or 200 μM, 24-72 hours, time- and dose-dependent. The protocol:
Cultures were trypsinized following 0, 24, 48, or 74 hours and fixed and stained using a modification of a procedure of Bauer et al., Cancer Res. 46, 3173-3178 (1986). Briefly, cells were collected by centrifugation and resuspended in cold phosphate-buffered saline. Cells were fixed in 70% ethanol, washed, and resuspended in phosphate-buffered saline.
After 24, 48, and 72 hours, cells were harvested, fixed in ethanol, and stained with propidium iodide, and the DNA content/cell was determined by flow cytometric analysis. The percentage of cells in G1, S, and G2M phases was calculated using the Cellfit cell cycle analysis program. S phase is marked by a quadrangle for clarity. Representative histograms from duplicate determinations are shown. The experiment was repeated three times.
For orientation: A flow cytometer gives signals particle by particle.

Data set [4] has as its system HT-29 SF cells. The data set is described as follows: DHEA effect on cell growth (Coulter counter). The following applies: 12.5-200 μM, 24-72 hours.
Experimental: Cell cultures, HT-29 SF cells, which represent a subline of HY-29 cells (ATCC, Rockville, Md.) and are adapted for growth in completely defined serum-free PC-1 medium (Ventrex, Portland, Me.), were obtained. Stock cultures were maintained in this medium at 37° C. (in a humidified atmosphere containing 5% CO2).
The nature of data set [5]: HPLC check of drug degradation during jet milling. The class given is physicochemical. The settings on record: HPLC peak area vs unmilled standard, single- and double-pass. Here is the method: The chromatographic peak area for the HPLC assay of the unmilled drug standard solution (10 mg/ml) gave a value of 23,427. […] The chromatographic peak areas for vials A and B were 11,979 and 11,677, respectively.

Data set [6] is described as follows: Solubility of DHEA-S as a function of NaCl and temperature. The class given is physicochemical. The settings on record: for Equilibrium constant Ksp=[DHEA-S−][Na+]: slope of solubility vs reciprocal sodium concentration. The text has this:
Inhalation of pure water can produce a cough stimulus. […] The temperature effect is weaker at high NaCl concentrations.

In data set [7] the test system is rat peritoneal mast cells. Kind of data set: Histamine secretion after stimulation with compound 48/80. The class given is cell-based. The protocol: Freshly isolated rat peritoneal mast cells (2×10^5 cells) were pre-incubated for 5 min at 37° C. in a Balanced Salt Solution containing 150 mM NaCl ([…]), 2.7 mM KCl, 0.9 mM CaCl2, 4 mM Na2HPO4, 2.7 mM KH2PO4, 1.75 mg/ml BSA and 0.1 μg/ml compound 48/80. Thereafter, DHEAS or water (control) are added and the mixture is incubated for 2 min at 37° C.
Following incubation, the mixture is cooled to 4° C. then centrifuged at 4500 rpm for 5 min The supernatant is collected and mixed for 30 min at 4° C. with 5% TCA (trichloroacetic acid) to cause protein precipitation. After centrifugation at 9500×g for 15 min, the supernatant is collected and mixed with 0.25 M HCl. Thereafter, the samples are mixed with 2M NaOH and 0.2% OPT (ortho-phtalaldehyde) and incubated for 30 min at 4° C. in darkness, after which time the reaction is stopped by addition of 0.5 M H2SO4.

SMILES strings stand for the structures. “And” between values parts separate entries of the source, which are not always exact repeats. Identical values can stand only once.

On to `Nc1nc(=O)c2c([nH]1)NCC(CNc1ccc(C(=O)N[C@@H](CCC(=O)O)C(=O)O)cc1)N2C=O` (mixture of isomers) [Folinic Acid, Folinic acid], for which the “Effect on steroid-mediated adenosine depletion” value in data set [1] (coadministration with DHEA or methyltestosterone) is “completely abrogated steroid-mediated adenosine depletion”. Moreover, the “Effect on adenosine levels” value in data set [1] (rat, in vivo) is “increase in adenosine levels for all organs studied”.

As for `CC(C)CCC[C@@H](C)[C@H]1CC[C@H]2[C@@H]3CC=C4C[C@@H](O)CC[C@]4(C)[C@H]3CC[C@]12C` [CH, cholesterol], the “Prevention of DHEA-induced reduction of cells in S phase” value was “very little effect” in data set [2] (48 hours) and “no effect” in data set [2] (72 hours).

`C[C@]12CC[C@H](O)CC1=CC[C@@H]1[C@@H]2CC[C@]2(C)C(=O)CC[C@@H]12` [DHEA, 3β-hydroxyandrost-5-en-17-one]: the “Effect on cell cycle” value in data set [3] was “G1 block”. In addition, the “Effect on cell growth” value in data set [4] is “time- and dose-dependent inhibition of growth”.

For the compound `C[C@]12CC[C@H](OS(=O)(=O)[O-])CC1=CC[C@@H]1[C@@H]2CC[C@]2(C)C(=O)CC[C@@H]12.[Na+]` [DHEA-S, sodium dehydroepiandrostenone sulfate], the “Degradation of the drug during jet milling micronization” value in data set [5] is on record as “no detectable degradation”. Besides, the “Estimated DHEA-S concentration in solution” value in data set [6] (15° C., 20 mM Na+, Ksp 1316 mM^2, quadratic formula) is 27.5 mM and 10.7 mg/mL. Also, in data set [6] (interpolated versus reciprocal of absolute temperature), the “Ksp at 15° C.” value is ~1316 mM^2. In addition, the “Equilibrium constant Ksp=[DHEA-S−][Na+]” value in data set [6] (refrigerated (7-8° C.)) amounted to 665 mM2; in data set [6] (room temperature (24-25° C.)), 2236 mM2. Further, the “Solubility under the assay conditions” value in data set [7] (at 10^-4 M) is recorded as “highly limited”. In addition, the EC50 in data set [7] (compound 48/80 0.1 μg/ml, 2 min at 37° C., read-out: EC50, inhibition of histamine release) is 170 nM.

As to `C[C@@](O)(CCO)CC(=O)O` [MVA, mevalonic acid], the “Prevention of DHEA-induced reduction of cells in S phase” value in data set [2] (48 hours) is listed as “partially prevented”; in data set [2] (72 hours), “not after 72 hours”.
